# Key:
# Type in all cases: cell-based, human
# caspase-3 = assay: Caspase-3 assay in SAT-reporter-transformed HEK293 cells after apoptosis inducers; conditions: confluent HEK293, 1-5 μM staurosporin for 8 hrs.
# HEK293 cells = assay: Annexin V apoptotic membrane assay in SAT-reporter-transformed HEK293 cells; conditions: staurosporin, 4 hrs.
# Text: A test system was constructed to evaluate SAT reporter expression and feasibility of detecting FRET signal changes in mammalian cells in microtiter assays. The human embryonic kidney-derived HEK293 cell line was chosen as a host because of its relatively high transfection efficiency, rapid growth, easy maintenance and suitability for microplate assay formats. In preliminary experiments in which HEK293 cells were transfected with pcDNA3-Emerald, transformed cells were fluorescent and there was no loss of fluorescence, or obvious detrimental effects on cell morphology or growth, in a selected pool of cells (i.e., mixed populations of cells) over the course of one month. […] Optimal conditions for transfection of HEK 293 cells with SAT-reporter plasmid were determined. Cells transfected using LIPOFECTAMINE (Life Technologies) and selected in G418 (Life Technologies) expressed full-length SAT reporter protein as determined by western analysis of transformed HEK293 cells after two weeks of in vitro selection. […] Under these conditions of treatment with staurosporin only about half of the SAT-reporter-transformed HEK293 cells in the population were apoptotic at 4 hrs. as determined using the Annexin V assay (Materials and Methods). […]
# F1-1-42 cells = assay: Staurosporin-induced apoptosis in F1-1-42 SAT FRET reporter cells (FRET signal, western blot, caspase-3, morphology)
# Description: Detecting Intracellular Changes in a FRET Reporter in Cells Undergoing Apoptosis: Having established that SAT reporter protein synthesized in HEK293 cells could be cleaved ex vivo, i.e., in cell lysates by trypsin (above), an initial in vivo intracellular assay was conducted using the selected F1-1-42 clonal cell line and staurosporin to induce apoptosis. […] In these experiments the F1-1-42 cells were plated at a density of 4×10^5 cells/0.5 ml in each well of a 24-well microtiter plate. After overnight incubation, apoptosis was induced by adding staurosporin to a final concentration of 5 μM, and using vehicle (0.25% DMSO) as a negative control. Assays for caspase-3 were used to confirm that apoptosis was induced. […] Subsequent testing determined that significant changes in FRET signal were first detectable at about 8 hours after addition of staurosporin and were maximal by 24 hrs post-induction.
# U-138 cells = assay: FRET signal in SAT-transfected U-138 cells; conditions: pcDNA3VH-SAT transfected U-138 parental cultures
# Text: Stable expression of the SAT reporter in U-138 cells was investigated by transfecting cultures with pcDNA3VH-SAT using calcium phosphate (Materials and Methods), and then selecting in medium containing G418 ([…]). […] The parental culture showing the strongest fluorescence and best growth characteristics was subcloned. Unexpectedly, the ability of the subclones to produce a staurosporin-inducible change in FRET signal was not stable, i.e., disappearing at passages 9, 11 and 13, but then reappearing at passage 16. While it was speculated that this phenomena may have resulted from some difference in expression and/or regulation of apoptosis or FRET reporter in sub-cultures of cells, these properties were not considered desirable and these SAT-transfected U-138 cell lines were discontinued in hopes that an improved reporter construct might solve the problem of irreproducibility.
structure (smiles),measurement,setting,value
CN[C@@H]1C[C@H]2O[C@@](C)([C@@H]1OC)n1c3ccccc3c3c4c(c5c6ccccc6n2c5c31)C(=O)NC4 [staurosporin],increase in caspase-3 activity over background,caspase-3,6- to 10 fold
same,cells in the population apoptotic (Annexin V assay),HEK293 cells,about half
same,SAT reporter cleavage by western analysis after induction,F1-1-42 cells; 5 μM staurosporin,cleavage of the SAT reporter
same,caspase-3 activity after induction,F1-1-42 cells; 5 μM staurosporin,caspase-3 activation
same,FRET signal change after induction,"F1-1-42 cells; 5 μM staurosporin, 24-well plate, 4×10^5 cells/0.5 ml",concomitant decrease in FRET signal
same,time at which significant changes in FRET signal were first detectable,F1-1-42 cells; after addition of staurosporin,about 8 hours
same,time at which FRET signal changes were maximal,F1-1-42 cells; post-induction with staurosporin,≤ 24 h
same,"FRET signal change, correlated with FRET reporter cleavage in western blot",U-138 cells,induced changes in FRET signal

# From patent US20020177120A1, “ASSAYS FOR APOTOSIS MODULATORS” (priority 1999, published 2002)
